Results from US10076511B2, “Bisamide derivative of dicarboxylic acid as an agent for stimulating tissue regeneration and recovery of diminished tissue function” (TREAMID GmbH, priority 2015, dated 2018).

Key:
male Wistar rats = assay: Pair-test of sexual behavior, seasonal suppression of copulatory activity; assay type: in vivo, rat
Protocol: Seasonal suppression of reproductive activity was simulated by carrying out the experiment in the winter period (end of December). As a background group, intact animals (3 months of age) were tested in June.
The experiments were carried out on 27 male Wistar rats of reproductive age (3 months). Treamid at a dose of 5 mg/kg and reference drug Sildenafil (at a dose of 3 mg/kg) were administered intragastrically […], once daily for 15 days. The sexual activity was estimated by the pair-test of sexual behavior. The test was carried out twice: before administration and one hour after the last administration of Treamid. The rats of the control groups receiving the solvent were tested at the same time as the animals of the experimental groups.
The experiment also comprised the use of female rats in the estrus stage caused by a preliminary 4-fold injection of the Synestrel. The effectiveness of Treamid was estimated by the following indices: latency until the first mating attempt (LFM), the number of mating attempts (MN), and the number of ejaculations (EN). The obtained data were compared with those of the same animals before the administration of the tested compound and with the data of the control group (the second test).

male C57BL/6 mice = assay: Metabolic syndrome model in mice (streptozotocin + high-fat diet): pancreas, glucose, testosterone; assay type: in vivo, mouse
Protocol: Metabolic disorders were simulated as follows: on Day 2 after birth, male C57Bl/6 mice were injected with streptozotocin at a dose of 200 mg/kg once, subcutaneously in the withers area, and the volume of the injected solution was 30 μl. From week 4 after birth, the animals were transferred to a diet high in fat. For this purpose, the used feed was enriched with heavy saturated fats (30% fat) (Siff EF R/M with 30% Fat Cat No. E15116-34, Germany). The duration of feeding with a high-fat feed was 42 days (from Day 28 to Day 70 of the experiment). […] The control animals received the equivalent volume of a solvent (2% starch mucus), instead of the test compound.
On Days 28, 35, 42, 49, 56, 63, and 70 of the study, blood glucose was determined. The blood glucose level was determined with a glucometer meter (Accu-Chek Performs Nanu (“Roche Diagnostes GmbH”, Germany). Blood glucose was measured in animals after 16-hour feed deprivation; all subsequent measurements of the glucose level were also performed after 16-hour feed deprivation.
On Day 70 day, animals were euthanized in a CO2 chamber. Then, the serum free testosterone level was studied, and the morphological examination of the pancreas was performed.
The level of free testosterone in the serum was evaluated by enzyme immunoassay according to the protocol of manufacturer's test system.
For morphological study, a part of the pancreas adjacent to the spleen was fixed in 10% formalin and poured into paraffin according to the standard method.
Deparaffined sections of the gland were stained with hematoxylin and eosin. On the sections, the area of 10 serial islets of Langerhans was determined by graphic computer analysis, and the total number of cells and the number of pyknotized cells were counted therein. Then, the number of cells per unit islet area and the percentage of the pyknotized cells were calculated. Inflammatory cells (neutrophils, lymphocytes, macrophages) in the pancreatic tissue and their composition were studied by staining of the histological sections with hematoxylin-eosin.

[1] = first test, before administration, winter period
[2] = second test, one hour after last administration, Treamid 5.0 mg/kg, Sildenafil 3 mg/kg intragastrically, 15 days
[3] = Day 70, Treamid (1 mg/kg), n = 8

O=C(CCCC(=O)NCCc1ncc[nH]1)NCCc1ncc[nH]1 [Treamid]
decrease of latency until the first mount after administration compared to before (male Wistar rats; Treamid 5 mg/kg): 1.8 times | increase of total number of mating attempts (male Wistar rats; Treamid 5 mg/kg, statistically insignificant): 1.8 times | LFM (male Wistar rats; [1]): 462.00 ± 117.81 s | the number of ejaculations, % (male Wistar rats; [1]): 0% | the number of mounts, abs. (male Wistar rats; [1]): 3.67 ± 1.34 abs. | LFM, sec (male Wistar rats; [2]): 251.33 ± 103.86♦ sec | the number of mounts, abs. (male Wistar rats; [2]): 6.56 ± 1.68 abs. | Serum glucose concentration (male C57BL/6 mice; Day 28 (before Treamid, given Day 49-70)): 5.36 ± 1.28 mmol/L | Serum glucose concentration (male C57BL/6 mice; Day 35 (before Treamid, given Day 49-70)): 4.21 ± 1.81 mmol/L | Serum glucose concentration (male C57BL/6 mice; Day 42 (before Treamid, given Day 49-70)): 12.75 ± 2.6 mmol/L | Serum glucose concentration (male C57BL/6 mice; Day 49, Treamid 10 mg/kg intragastrically Day 49-70): 13.59 ± 2.41 mmol/L | Serum glucose concentration (mmol/L) (male C57BL/6 mice; Day 56, Treamid 10 mg/kg intragastrically Day 49-70): 12.91 ± 4.48*• mmol/L | Serum glucose concentration (mmol/L) (male C57BL/6 mice; Day 63, Treamid 10 mg/kg intragastrically Day 49-70): 14.47 ± 3.21*• mmol/L | Free testosterone (pg/ml), serum (male C57BL/6 mice; Day 70, Treamid 10 mg/kg): 3.70 ± 0.46 pg/mL | Serum glucose concentration (male C57BL/6 mice; Day 70, Treamid 10 mg/kg intragastrically Day 49-70): 21.82 ± 5.83 mmol/L | % of pyknotized cells in the islet of Langerhans (male C57BL/6 mice; [3]): 0.99 ± 0.06• % | Area of an islet (pixel) (male C57BL/6 mice; [3]): 743399 ± 21134*• pixel | The number of islets in 30 vision fields (male C57BL/6 mice; [3]): 7.4 ± 0.37•
